In patent publication US9750727B2 (priority 2010, dated 2017):

Tested on: drug-resistant clinical isolates of M. tuberculosis
Format: cell-based

NC(=S)NN=Cc1ccncc1.[O-][Cl+3]([O-])([O-])O [new treatment]
MIC for 88.8% of cultures: 3.125 to 6.25 µg/mL
